Measurements as given in patent publication US10294244B2, “2,3-dihydro-thiazolo[3,2-A]pyridin-5-one derivatives, intermediates thereof, and their use as antibacterial agents” (Quretech Bio AB, priority 2014, dated 2019).

Tested on: C. trachomatis serovar LGV-L2
Assay: Inhibition of infectious Chlamydia progenies (C. trachomatis infectivity, reinfection of HeLa cells, IFU count)
Assay type: cell-based
Settings: infected HeLa cells, MOI 0.3, compound added 1 hpi, 44-48 h, relative to DMSO-treated control; for inhibition at 2.5 µM: 2.5 uM compound; for inhibition at 10 µM: 10 uM compound; for inhibition at 50 µM: 50 uM compound
Description: Cell Culture, C. trachomatis Infections, and Determination of C. trachomatis Infectivity.
HeLa cells were infected with C. trachomatis serovar LGV-L2 at an MOI of 0.3. At 1 hpi, RPMI media containing the different dilutions of the tested compounds in DMSO were added. The different compounds were dissolved to 20 mM in DMSO and were then diluted with RPMI media to be added at 2.5 to 100 μM. After 44-48 h incubation, the cells were osmotically lysed by the addition of cold sterile distilled water to release infectious EB progeny. 5×SPG was added to equalize the osmotic pressure to a 1×SPG isotonic condition. An equal amount of HBSS (Hanks balanced salt solution) (Gibco/Invitrogen) was added to the lysate (yielding a 1:1 dilution) and 10-fold serial dilutions of the resulting mixture was used to infect fresh HeLa cells. At 1 hpi, the inoculum was replaced with RPMI media and the infection allowed to progress for 44-48 hours before fixation and staining. Fixation was performed by adding methanol for 5 minutes and the cells were subsequently washed with phosphate buffered saline (PBS). The chlamydial inclusions were stained by a primary rabbit anti-Chlamydia antibody (generated in-house) and a secondary donkey anti-rabbit FITC-labelled antibody (Jackson ImmunoResearch). The DNA of the cells and Chlamydia was stained by the addition of DAPI. The stained cells were analyzed by an ArrayScan automated scanner (ArrayScan VTI HCS, Thermo Scientific). Data were presented as the relative numbers of IFUs in treated infections compared to the numbers of IFUs in DMSO-treated control infections.
The compounds of Examples 1-33 were tested for inhibition of infectious Chlamydia progenies at concentrations of 2.5 μM, 10 μM, 50 μM and 100 μM. In this document μM stands for micromolar. The compounds of the present disclosure were considered to have antibacterial activity if they provided 50% or more inhibition of infectious Chlamydia progenies using at least one of the tested concentrations in Table 1.

| Compound | inhibition at 2.5 µM [%] | inhibition at 10 µM [%] | inhibition at 50 µM [%] |
| --- | --- | --- | --- |
| COc1c(Cc2cccc3ccccc23)cc(=O)n2c1SC[C@H]2C(=O)Nc1ccccc1 [Example 1, {(3R)-7-Methoxy-6-[(1-naphthyl)methyl]-4-oxo-1-thia-3a-aza-3-indanyl}anilinoformaldehyde] | 100 |  |  |
| COc1c(Cc2cccc3ccccc23)cc(=O)n2c1SC[C@H]2C(=O)Nc1ccc(C)cc1 [Example 2, {(3R)-7-Methoxy-6-[(1-naphthyl)methyl]-4-oxo-1-thia-3a-aza-3-indanyl}(p-toluidino)formaldehyde] | 96 | 100 |  |
| COc1c(Cc2cccc(C)c2C)cc(=O)n2c1SC[C@H]2C(=O)Nc1ccccc1 [Example 3, {(3R)-7-Methoxy-4-oxo-6-[(2,3-xylyl)methyl]-1-thia-3a-aza-3-indanyl}anilinoformaldehyde] | 95 | 100 |  |
| COc1c(Cc2cccc(C)c2C)cc(=O)n2c1SC[C@H]2C(=O)Nc1cc(C)cc(F)c1 [Example 4, {(3R)-7-Methoxy-4-oxo-6-[(2,3-xylyl)methyl]-1-thia-3a-aza-3-indanyl}(3-fluoro-5-toluidino)formaldehyde] | 99 | 100 |  |
| COc1c(Cc2cccc(C)c2C)cc(=O)n2c1SC[C@H]2C(=O)Nc1ccc(C)cc1 [Example 5, {(3R)-7-Methoxy-4-oxo-6-[(2,3-xylyl)methyl]-1-thia-3a-aza-3-indanyl}(p-toluidino)formaldehyde] | 100 | 100 |  |
| COc1c(Cc2cccc3ccccc23)c(N)c(=O)n2c1SC[C@H]2C(=O)Nc1ccccc1 [Example 6, {(3R)-5-Amino-7-methoxy-6-[(1-naphthyl)methyl]-4-oxo-1-thia-3a-aza-3-indanyl}anilinoformaldehyde] | 63 | 100 |  |
| COc1c(Cc2cccc(C)c2C)c(N)c(=O)n2c1SC[C@H]2C(=O)Nc1ccc(C)cc1 [Example 7, {(3R)-5-Amino-7-methoxy-4-oxo-6-[(2,3-xylyl)methyl]-1-thia-3a-aza-3-indanyl}(p-toluidino)formaldehyde] | 90 | 100 |  |
| COc1c(Cc2cccc(C)c2C)c(N)c(=O)n2c1SC[C@H]2C(=O)Nc1cc(C)cc(F)c1 [Example 8, {(3R)-5-Amino-7-methoxy-4-oxo-6-[(2,3-xylyl)methyl]-1-thia-3a-aza-3-indanyl}(3-fluoro-5-toluidino)formaldehyde] | 87 | 100 |  |
| COc1c(Cc2cccc3ccccc23)c(N)c(=O)n2c1SC[C@H]2C(=O)Nc1ccc(C)cc1 [Example 9, {(3R)-5-Amino-7-methoxy-6-[(1-naphthyl)methyl]-4-oxo-1-thia-3a-aza-3-indanyl}(p-toluidino)formaldehyde] | 89 | 100 |  |
| O=C(Nc1ccccc1)[C@@H]1CSc2c(O)c(Cc3cccc4ccccc34)cc(=O)n21 [Example 10, {(3R)-7-Hydroxy-6-[(1-naphthyl)methyl]-4-oxo-1-thia-3a-aza-3-indanyl}anilinoformaldehyde] | 88 | 98 |  |
| O=C(Nc1ccccc1)[C@@H]1CSc2c(Cl)c(Cc3cccc4ccccc34)cc(=O)n21 [Example 11, {(3R)-7-Chloro-6-[(1-naphthyl)methyl]-4-oxo-1-thia-3a-aza-3-indanyl}anilinoformaldehyde] | 97 | 100 |  |
| O=C(Nc1ccccc1)[C@@H]1CSc2c(C(F)(F)F)c(Cc3cccc4ccccc34)cc(=O)n21 [Example 12, {(3R)-6-[(1-Naphthyl)methyl]-4-oxo-7-(trifluoromethyl)-1-thia-3a-aza-3-indanyl}anilinoformaldehyde] | 98 | 100 |  |
| COc1c(Cc2cccc(C)c2C)c(N)c(=O)n2c1SC[C@H]2C(=O)Nc1ccccc1 [Example 13, {(3R)-5-Amino-7-methoxy-4-oxo-6-[(2,3-xylyl)methyl]-1-thia-3a-aza-3-indanyl}anilinoformaldehyde] | 75 | 100 |  |
| COc1c(Cc2cccc(C)c2C)c(N)c(=O)n2c1SC[C@H]2c1nc(-c2ccccc2)no1 [Example 14, (3R)-5-Amino-7-methoxy-3-(3-phenyl-1,2,4-oxadiazol-5-yl)-6-[(2,3-xylyl)methyl]-1-thia-3a-aza-4-indanone] | 76 | 100 |  |
| COc1c(Cc2cccc(C)c2C)cc(=O)n2c1SC[C@H]2c1nnc(-c2ccccc2)o1 [Example 15, (3R)-7-Methoxy-3-(5-phenyl-1,3,4-oxadiazol-2-yl)-6-[(2,3-xylyl)methyl]-1-thia-3a-aza-4-indanone] | 84 | 100 |  |
| COc1c(Cc2cccc(C)c2C)cc(=O)n2c1SC[C@H]2c1nc(-c2ccccc2)no1 [Example 16, (3R)-7-Methoxy-3-(3-phenyl-1,2,4-oxadiazol-5-yl)-6-[(2,3-xylyl)methyl]-1-thia-3a-aza-4-indanone] | 81 | 100 |  |
| COc1c(COc2cccc(C)c2C)cc(=O)n2c1SC[C@H]2C(=O)Nc1ccc(Cl)cn1 [Example 17, {(3R)-7-Methoxy-4-oxo-6-[(2,3-xylyloxy)methyl]-1-thia-3a-aza-3-indanyl}(5-chloro-2-pyridylamino)formaldehyde] | 79 | 100 |  |
| Cc1cccc(OCc2cc(=O)n3c(c2C2CC2)SCC3C(=O)Nc2ccccc2)c1C (stereo not drawn) [Example 19, Anilino{7-cyclopropyl-4-oxo-6-[(2,3-xylylyloxy)methyl]-1-thia-3a-aza-3-indanyl}formaldehyde] | 100 |  |  |
| Cc1ccc(NC(=O)[C@@H]2CSc3c(C4CC4)c(Cc4cccc(C)c4C)cc(=O)n32)cc1 [Example 20, {(3R)-7-Cyclopropyl-4-oxo-6-[(2,3-xylyl)methyl]-1-thia-3a-aza-3-indanyl}(p-toluidino)formaldehyde] | 99 |  |  |
| Cc1ccc(NC(=O)[C@@H]2CSc3c(C4CC4)c(Cc4ccc(Cl)cc4)cc(=O)n32)cc1 [Example 21, {(3R)-6-[(p-Chlorophenyl)methyl]-7-cyclopropyl-4-oxo-1-thia-3a-aza-3-indanyl}(p-toluidino)formaldehyde] | 99 |  |  |
| O=c1cc(Cc2cccc3ccccc23)c(C2CC2)c2n1[C@H](c1nc(-c3ccccc3)n[nH]1)CS2 [Example 22, (3R)-7-Cyclopropyl-6-[(1-naphthyl)methyl]-3-(5-phenyl-2H-1,2,4-triazol-3-yl)-1-thia-3a-aza-4-indanone] | 98 | 100 |  |
| CC(C)Nc1c(Cc2cccc3ccccc23)cc(=O)n2c1SC[C@H]2C(=O)Nc1ccccc1 [Example 23, Anilino{7-(isopropylamino)-6-[(1-naphthyl)methyl]-4-oxo-1-thia-3a-aza-3-indanyl}formaldehyde] |  | 98 | 98 |
| CN(C)c1c(Cc2cccc3ccccc23)cc(=O)n2c1SC[C@H]2C(=O)Nc1ccccc1 [Example 24, {(3R)-7-(Dimethylamino)-6-[(1-naphthyl)methyl]-4-oxo-1-thia-3a-aza-3-indanyl}anilinoformaldehyde] |  | 98 | 99 |
